# Test results: patent publication US20250263370A1 (Tay Therapeutics Limited, priority 2022, published 2025)
# Where “and” joins values, the source holds several entries; their conditions need not be identical. Identical values can stand only once. Like-named read-outs stand apart in the source and are kept apart here.
# How the values were obtained:
# [1] = target: BRD4 BD2 (Homo sapiens (Human), UniProt O60885); test: NanoBRET bromodomain assay, NanoLuc-BRD4-BD2 fusion in HEK293 cells;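 also: tracer displacement BRET read in transfected cells after 2 h compound exposure at 37 °C, signal in milliBRET units corrected against no-tracer background wells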
# Description: HEK293 cells were transfected using NanoLuc-BRD4-BD1 or NanoLuc-BRD4-BD2 fusion vectors and incubated at 37° C. in an atmosphere of 5% CO2 for 20-24 hours. The transfected cells were then dispensed into 96-well plates using 90 μl cell suspension per well containing 2×10^5 cells/mL in Opti-MEM and 1× final concentration of tracer. 90 μL per well of cell suspension without tracer was also dispensed into at least 3 wells as “No tracer control samples” for background correction. Serially diluted test compounds were prepared at 1000× concentration in DMSO and further diluted to 10× concentration in Opti-MEM. […] Plates were then incubated at 37° C. +5% 002 incubator for 2 hours. […] Donor emission (450 nm) and acceptor emission (610 nm) were measured using PHERAstar (BMG LabTech). For data analysis, the raw BRET ratio was generated and converted to milliBRET units with background correction using the formula: [(Acceptorsample/Donorsample−(Acceptorno tracer control/Donorno tracer control)]×1000. The mBU data was plotted as a function of compound concentration and IC50s for BRET assay were determined by nonlinear regression analysis of concentration response curves using the Collaborative Drug Discovery Vault software. The fold-selectivity was calculated by dividing the IC50 for BRD4 BD1 by the IC50 for BRD4 BD2.
# [2] = target: BD 2 (Homo sapiens, UniProt O60885); test: Free EC50 for BD 2, compared with plasma concentration
# [3] = Intrinsic clearance in liver microsomes, rat; assay type: in vitro ADME; conditions: rat, liver microsomes, pH 7.4, rat liver microsomes, Method 1; read-out: Half-Life (T1/2) (min), Rat
# Outline: (§1)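 Compound at 1 μM (0.1–1% DMSO) incubated at 37 °C with mouse or rat liver microsomes (0.5 mg/mL protein) and 1 mM NADPH in PBS pH 7.4; samples taken up to 60 min and quenched in cold acetonitrile. LC-MS/MS of percent remaining gave half-life and CLint; no-NADPH controls run.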
# [4] = Intrinsic clearance in liver microsomes, mouse; assay type: in vitro ADME; conditions: pH 7.4, Method 1, read-out: Half-Life (T1/2) (min), Mouse
# Outline: as §1
# [5] = Plasma concentration of Example 101 in UUO rats by LC-MS/MS; assay type: in vivo, rat; conditions: for concentration at 4 h: rat, plasma, po, 30 mg/kg
# Excerpt: Serum for blood biochemistry analysis was collected into centrifuge tubes without coagulant four hours after final dosing. Blood plasma samples from group 3 was collected into tubes with K2EDTA four hours after final dosing. At the conclusion of the study (end of the 14-day period), animals were euthanized. Kidney tissue was collected four hours after final dosing. Ligated side kidney was divided into three copies ⅓ fix into 10% formalin for H&E analysis, ⅓ into RNA for PCR analysis of tissue biomarkers Col1a1, TGF-b1, MCP-1, IL-1b, IL-6, IL-17, TNF-a, and Timp1, and ⅓ for hydroxyproline assay analyzed by ELISA. RNA was extracted from tissue using the RNeasy mini kit (Qiagen). RNA concentration was measured using a NanoDrop One Spectrophotometer (ThermoFisher) and converted to cDNA using a High-Capacity RNA-to-cDNA kit (Invitrogen). RT-PCR was performed to measure levels of mRNA of different targets using TaqMan® Gene Expression Master Mix and TaqMan® probe/primer sets on a QuantStudio 6, Real-Time PCR System (ThermoFisher). Fold change in target gene expression was determined using the ΔΔCt method.
# Samples were analyzed on a Raptor Biphenyl 2.7 μm 50×2.1 mm column. Solution A in the mobile phase was 95% water (0.1% formic acid) and solution B was 95% acetonitrile in water (0.1% formic acid), injection volume was 20 μL, and flow rate was 0.5 mL/min.
# To prepare samples for analysis, serial concentrations were prepared by diluting the stock solution of analyte with a 50% acetonitrile in water solution. 5 μL working solutions (5, 10, 20, 50, 100, 500, 1000, 5000, and 10000 ng/mL) were added to 50 μL of the blank SD rat plasma to achieve calibration standards of −0.5 to 1000 ng/mL (0.5, 1, 2, 5, 10, 50, 100, 500, and 1000 ng/mL) in a total volume of 55 μL. […]
# 55 μL of standards, 55 μL of QC samples and 55 μL of unknown samples (50 μL of unknown rat plasma with 5 μL of blank solution) were added to 200 μL of acetonitrile containing IS mixture for precipitating protein respectively. […] 20 μL of diluted supernatant was injected into the LC/MS/MS system for quantitative analysis.
smiles,measurement,setting,value
"CNC(=O)c1[nH]c(C(=O)NC2CCC2)cc1O[C@@H](C)c1ccccc1 (stereo in doubt) [Example 101, N^5-cyclobutyl-N^2-methyl-3-(1-phenylethoxy)-1H-pyrrole-2,5-dicarboxamide]",selectivity for BDII relative to GSK620,[1],more selective than GSK620 for BDII by greater than about two orders of magnitude
same,IC50,"[1]; BRD4 BD2 (IC50), NanoBRET, HEK293 cells, top concentration 10 μM",< 50 nM
same,Fold selectivity,"[1]; IC50 for BRD4 BD1 divided by IC50 for BRD4 BD2, qualitative if an IC50 is at the upper limit",XXX (Fold >200)
same,EC50,[2],606 nM
same,half-life at 1 μM,[3],58 min
same,half-life at 1 μM,[4],27 min
same,Plasma concentration of Example 101,"[5]; male SD rats, oral, 4 h after final treatment, individual test subjects",485 ng/mL and 959 ng/mL and 760 ng/mL and 859 ng/mL and 906 ng/mL and 1160 ng/mL and 665 ng/mL and 941 ng/mL
same,concentration at 4 h,"[5]; male, SD, Mean plasma concentration of Example 101, male SD rats, oral, 4 h after final treatment, mean of 8 subjects",846 ng/mL
same,concentration at 4 h,"[5]; UUO rats, 30 mg/kg oral, four hours after final treatment, read-out: mean plasma concentration",846 ng/mL
